The results in this text go back to ChEMBL document CHEMBL1148213, “Diterpenoids from Isodon melissoides” (J Nat Prod, 2004).

≈ marks a conversion by molar mass, not a printed value.

This assay concerns BGC-823. Kind of assay: Cytotoxicity against human BGC823 cells. In kind it is functional, cell-based.
As for `C=C1[C@@H]2C[C@H](O)[C@H]3[C@]4(C)CC[C@H](OC(C)=O)C(C)(C)[C@H]4[C@@H](OC(C)=O)[C@H](OC(C)=O)[C@]3(C2)[C@@H]1O`, the Activity entry was “Not toxic”.

Take `C=C1[C@@H]2C[C@H](O)[C@@H]3[C@](C2)(C[C@H](OC(C)=O)[C@@H]2C(C)(C)[C@@H](OC(C)=O)C[C@H](OC(C)=O)[C@]23C)[C@@H]1O`: the Activity result is “Not toxic”. In turn, `CC[C@]1(O)C[C@H]2CN(CCc3c([nH]c4ccccc34)[C@@](C(=O)OC)(c3cc4c(cc3OC)N(C=O)[C@H]3[C@@](O)(C(=O)OC)[C@H](OC(C)=O)[C@]5(CC)C=CCN6CC[C@]43[C@@H]65)C2)C1` [VINCRISTINE] registered a concentration for half-maximal inhibition (IC50) of 0.066 µg/mL (≈ 0.08 µM). Still for that read-out and setting: next, `C=C1C(=O)[C@]23C[C@H]1C[C@H](O)[C@H]2[C@]1(C)CC[C@H](OC(C)=O)C(C)(C)[C@H]1[C@@H](OC(C)=O)C3` [MELISSOIDESIN O]: 7.83 µg/mL (≈ 18.7 µM); `C=C1C(=O)[C@]23C[C@H]1C[C@H](O)[C@H]2[C@@]1(C)[C@H]([C@@H](OC(C)=O)C3)C(C)(C)[C@@H](OC(C)=O)C[C@@H]1O` [MELISSOIDESIN S]: 7.71 µg/mL (≈ 17.7 µM). For `C=C1C(=O)[C@]23C[C@H]1C[C@H](O)[C@H]2[C@]1(C)CC[C@H](OC(C)=O)C(C)(C)[C@H]1[C@@H](OC(C)=O)[C@@H]3O` [MELISSOIDESIN G], the midpoint of inhibition, the IC50, lay at 6.62 µg/mL (≈ 15.2 µM). Same read-out and setting: next, `C=C1C(=O)[C@]23C[C@H]1C[C@H](O)[C@H]2[C@]1(C)CC[C@H](O)C(C)(C)[C@H]1[C@@H](OC(C)=O)[C@@H]3O` [XINDONGNIN B]: 9.45 µg/mL (≈ 24.1 µM).

As for `C=C1[C@@H]2C[C@H](O)[C@H]3[C@]4(C)CC[C@H](O)C(C)(C)[C@H]4[C@@H](OC(C)=O)C[C@]3(C2)[C@@H]1O`, the Activity entry was “Not toxic”.

Take `C=C1[C@@H]2C[C@H](O)[C@@H]3[C@](C2)(C[C@H](OC(C)=O)[C@@H]2C(C)(C)[C@@H](OC(C)=O)C[C@H](O)[C@]23C)[C@@H]1O`: the Activity result is “Not toxic”. On to `C=C1C(=O)[C@]23C[C@H]1C[C@H](O)[C@H]2[C@]1(C)CC[C@H](OC(C)=O)C(C)(C)[C@H]1[C@@H](OC(C)=O)[C@@H]3OC(C)=O` [DAWOENSIN A], for which 3.54 µg/mL (≈ 7.43 µM) corresponded to half-maximal inhibition (IC50).

With `C=C1[C@@H]2C[C@H](O)[C@H]3[C@]4(C)CC[C@H](OC(C)=O)C(C)(C)[C@H]4[C@@H](OC(C)=O)C[C@]3(C2)[C@@H]1O`, the Activity result is “Not toxic”. The molecule `C=C1C(=O)[C@]23C[C@H]1C[C@H](O)[C@H]2[C@]1(C)CC[C@H](O)C(C)(C)[C@H]1[C@@H](OC(C)=O)C3` [MELISSOIDESIN N] showed an IC50 of 0.036 µg/mL (≈ 0.0956 µM). Turning to `C=C1[C@@H]2C[C@H](O)[C@H]3[C@]4(C)CC[C@H](O)C(C)(C)[C@H]4[C@@H](OC(C)=O)[C@H](O)[C@]3(C2)[C@@H]1O`, the Activity result was “Not toxic”.

On to `C=C1[C@@H]2C[C@H](O)[C@H]3[C@]4(C)CC[C@H](O)C(C)(C)[C@H]4[C@@H](OC(C)=O)[C@H](OC(C)=O)[C@]3(C2)[C@@H]1O`, for which the Activity result was “Not toxic”.
